Where a name gives a salt, the structure may show the parent alone. Read-outs that look alike come from different tables or passages of the source.
Target: T1, human Y4 receptor (Homo sapiens, UniProt P50391)
T1 construct: expressed in transfected cells
Assay: NPY4 cAMP HTRF Agonist Assay (inhibitory cAMP assay, Gi activation by Y4 agonism)
Assay type: cell-based
Protocol: NPY4 cAMP HTRF Agonist Assay
The functionality of the compound at Y4 receptor was analyzed using a inhibitory cAMP assay (CISBIO, HTRF cAMP kit #62AM4PEC) to measure the Gi activation by Y4 agonism.
The human Y4 stable CHO clonal cells were maintained in culture medium (F-12 containing 10% Fetal Bovine Serum, […] GENETICIN®, […] Zeocin). Before the experiment, 5 μL of 1 uM Forskolin (Sigma, # F6886) and 100 uM IBMX (Sigma, # I5879) in PBS buffer were added into 384-well plates (PE, Proxi-plate) that were pre-dotted with 100 nL compounds. The cells were removed from the flasks by Cellstripper, counted and adjusted to 1.0×10^6 cells/mL in PBS buffer, and added 5 μL/well (5000 cells/well) into the above 384-well plates. The cells were then covered and incubated for 30 minutes at room temperature. After incubation, 5 μL/well of D2-conjugate in HTRF lysis buffer was first added, followed by adding 5 μL/well of anti-cAMP Cryptate in HTRF lysis buffer. The plates were incubated for another 1 hour at room temperature and read on the EnVision Multilabel Plate Reader.
Compounds described herein were tested in the above assay.

[1] = human Y4 stable CHO clonal cells, forskolin + IBMX, read-out: NPY4 cAMP HTRF Agonist Assay EC50
[2] = human Y4 receptor, cAMP, read-out: hY4 CAMP EC50
[3] = second TABLE 1, R2 is Phenyl-CF3, read-out: hY4 CAMP EC50
[4] = TABLE 4, R2 is Pyridinyl-CN, read-out: hY4 CAMP EC50
[5] = TABLE 2, R2 is Phenyl-CN, read-out: hY4 CAMP EC50
[6] = TABLE 5, R2 is Pyridinyl-CF3, read-out: hY4 CAMP EC50

T1 sequence (P50391 whole entry): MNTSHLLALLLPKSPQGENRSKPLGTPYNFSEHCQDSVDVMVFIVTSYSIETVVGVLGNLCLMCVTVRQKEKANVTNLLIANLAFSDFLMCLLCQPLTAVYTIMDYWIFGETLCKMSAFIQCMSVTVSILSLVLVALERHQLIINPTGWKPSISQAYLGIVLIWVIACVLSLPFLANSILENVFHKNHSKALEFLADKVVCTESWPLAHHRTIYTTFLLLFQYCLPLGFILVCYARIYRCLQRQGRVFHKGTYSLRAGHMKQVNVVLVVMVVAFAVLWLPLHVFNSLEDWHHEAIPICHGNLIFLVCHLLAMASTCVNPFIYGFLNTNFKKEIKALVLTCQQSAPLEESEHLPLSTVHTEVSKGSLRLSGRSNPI

Work on `O=[N+]([O-])c1ccc(N2C[C@@H]3C[C@H](N[C@@H]4CCCC[C@H]4Nc4ncc(-c5ccc(OC(F)(F)F)cc5)o4)[C@H]2C3)cc1` [Example 5, (1R,2R)—N1-((1R,4R,6S)-2-(4-Nitrophenyl)-2-azabicyclo[2.2.1]heptan-6-yl)-N2-(5-(4-(trifluoromethoxy)phenyl)oxazol-2-yl)cyclohexane-1,2-diamine] yielded an EC50 [1] of 9 nM.

Work on `Cc1nnc(-c2ccc(N3CCC[C@H](N[C@@H]4CCCC[C@H]4Nc4nccc(-c5ccccc5)n4)C3)cc2)o1` [Example 84, (1R,2R)—N1-((S)-1-(4-(5-Methyl-1,3,4-oxadiazol-2-yl)phenyl)piperidin-3-yl)-N2-(4-phenylpyrimidin-2-yl)cyclohexane-1,2-diamine bis-trifluoroacetate] yielded an EC50 [1] of 9 nM.

With `N#Cc1ncc(N2CCC[C@H](N[C@@H]3CCCC[C@H]3Nc3cc(-c4cccc(C(N)=O)c4)ccn3)C2)cn1` [Example 431] the EC50 [2] was 171 nM.

`NC(=O)c1cccc(-c2cc(N[C@@H]3CCCC[C@H]3N[C@H]3C[C@@H]4C[C@H]3N(c3ccc([N+](=O)[O-])cc3)C4)ncn2)c1` [Example 297] was tested, and the EC50 (TABLE 3, R2 is Phenyl-NO2, read-out: hY4 CAMP EC50) was 163 nM.

Compound `CCNCc1cccc(-c2ccnc(N[C@@H]3CCCC[C@H]3N[C@H]3CCCN(c4ccc(C(F)(F)F)cc4)C3)c2)c1` [Example 142] has an EC50 [3] of 58 nM.

In the case of `N#Cc1ccc(N2CCC[C@H](N[C@@H]3CCCC[C@H]3Nc3ncc(-c4ccccc4)s3)C2)cc1` [Example 42, 4-((S)-3-((1R,2R)-2-(5-Phenylthiazol-2-ylamino)cyclohexylamino)piperidin-1-yl)benzonitrile], the EC50 [1] is reported as 45 nM.

`CC(C)NC(=O)c1cccc(-c2cnc(N[C@@H]3CCCC[C@H]3N[C@H]3CCCN(c4ccc(C(F)(F)F)cc4)C3)o2)c1` [Example 125] was tested, and the EC50 [3] was 11 nM.

In the case of `Cc1nc(-c2ccc(N3CCC[C@H](N[C@@H]4CCCC[C@H]4Nc4nccc(-c5ccccc5)n4)C3)nc2)no1` [Example 391], the EC50 (TABLE 7, R2 is Pyridinyl-oxadiazole-CH3, read-out: hY4 CAMP EC50) is reported as 2 nM.

In the case of `Cn1nnc(-c2ccc(N3CCC[C@H](N[C@@H]4CCCC[C@H]4Nc4cc(-c5cccc(O)c5)ccn4)C3)cc2)n1` [Example 504], the EC50 [2] is reported as 0.3 nM.

Work on `CC(C)(O)C#Cc1ccnc(N[C@@H]2CCCC[C@H]2N[C@H]2CCCN(c3ccc(C(F)(F)F)cc3)C2)c1` [Example 162] yielded an EC50 [3] of 546 nM.

Compound `N#Cc1ccc(N2CCC[C@H](N[C@@H]3CCCC[C@H]3Nc3cc(-c4cccc(C(N)=O)c4)ccn3)C2)nc1` [Example 300] has an EC50 [4] of 130 nM.

Compound `CC(C)(C)c1cccc(-c2ccnc(N[C@@H]3CCCC[C@H]3N[C@H]3CCCN(c4ccc(C(F)(F)F)cc4)C3)c2)c1` [Example 155] has an EC50 [3] of 235 nM.

`COC(=O)Nc1cccc(-c2ccnc(N[C@@H]3CCCC[C@H]3N[C@H]3CCCN(c4ccc(-c5ccccc5)cc4)C3)c2)c1` [Example 516] gave an EC50 [2] of 17 nM.

Work on `Cc1ccc(-c2ccnc(N[C@@H]3CCCC[C@H]3N[C@H]3CCCN(c4ccc(C#N)cc4)C3)c2)cc1` [Example 271] yielded an EC50 [5] of 461 nM.

For `COc1ccc(-c2cnc(N[C@@H]3CCCC[C@H]3N[C@H]3CCCN(c4ccc([N+](=O)[O-])cc4)C3)o2)c(F)c1` [Example 21, (1R,2R)—N1-(5-(2-fluoro-4-methoxyphenyl)oxazol-2-yl)-N2-((S)-1-(4-nitrophenyl)piperidin-3-yl)cyclohexane-1,2-diamine], the EC50 [1] was 11 nM.

For `FC(F)(F)Oc1ccc(-c2cnc(N[C@@H]3CCCC[C@H]3N[C@H]3CCCN(c4ccc(C(F)(F)F)cn4)C3)o2)cc1` [Example 94, (1R,2R)—N1-(5-(4-(Trifluoromethoxy)phenyl)oxazol-2-yl)-N2-((S)-1-(5-(trifluoromethyl)pyridin-2-yl)piperidin-3-yl)cyclohexane-1,2-diamine], the EC50 [1] was 210 nM.

In the case of `Cn1nnc(-c2ccc(N3CCC[C@H](N[C@@H]4CCCC[C@H]4Nc4cc(-c5cccc(NS(C)(=O)=O)c5)ccn4)C3)cc2)n1` [Example 507], the EC50 [2] is reported as 6 nM.

For `N#Cc1ccc(N2C[C@@H]3C[C@H](N[C@@H]4CCCC[C@H]4Nc4ncc(-c5ccc(OC(F)(F)F)cc5)o4)[C@H]2C3)nn1` [Example 443], the EC50 [2] was 482 nM.

For `Cc1nnc(-c2ccc(N3CCC[C@H](N[C@@H]4CCCC[C@H]4Nc4cc(-c5cccc(C(N)=O)c5)ccn4)C3)cc2)o1` [Example 349], the EC50 [2] was 1 nM.

Work on `C[C@]1(N[C@@H]2CCCC[C@H]2Nc2ncc(-c3cccc(C(N)=O)c3)o2)CCCN(c2ccc(C(F)(F)F)cn2)C1` [Example 329] yielded an EC50 [6] of 1 nM.

In the case of `CC(=O)NCc1cccc(-c2ccnc(N[C@@H]3CCCC[C@H]3N[C@H]3CCCN(c4ccc(C#N)cc4)C3)c2)c1` [Example 244], the EC50 [5] is reported as 7 nM.

`CC(C)(C)NC(=O)c1cccc(-c2ccnc(N[C@@H]3CCCC[C@H]3N[C@H]3CCCN(c4ccc(C(F)(F)F)cc4)C3)c2)c1` [Example 128] gave an EC50 [3] of 227 nM.

With `N#Cc1ccc(N2CCC[C@H](N[C@@H]3CCCC[C@H]3Nc3cc(-c4ccc(N)cc4)ccn3)C2)cc1` [Example 239] the EC50 [5] was 290 nM.

Work on `COC(=O)c1cccc(-c2cnc(N[C@@H]3CCCC[C@H]3N[C@H]3CCCN(c4ccc5ncnn5c4)C3)o2)c1` [Example 484] yielded an EC50 [2] of 312 nM.

For `Cc1nc2ccc(N3CCC[C@H](N[C@@H]4CCCC[C@H]4Nc4ncc(-c5cc(F)c(F)c(F)c5)o4)C3)cn2n1` [Example 498], the EC50 [2] was 63 nM.

`C[C@]1(N[C@@H]2CCCC[C@H]2Nc2ncc(-c3cccc(C(N)=O)c3)o2)CCCN(c2ncc(C#N)cn2)C1` [Example 432] was tested, and the EC50 [2] was 29 nM.

Work on `COC(=O)Nc1cccc(-c2ccnc(N[C@@H]3CCCC[C@H]3N[C@H]3CCCN(c4ccc(-c5noc(C6CC6)n5)cc4)C3)c2)c1` [Example 458] yielded an EC50 [2] of 0.2 nM.

`Fc1cc(N2CCC[C@H](N[C@@H]3CCCC[C@H]3Nc3nccc(-c4ccccc4)n3)C2)ccc1C(F)(F)F` [Example 74, (1R,2R)—N1-((S)-1-(3-Fluoro-4-(trifluoromethyl)phenyl)piperidin-3-yl)-N2-(4-phenylpyrimidin-2-yl)cyclohexane-1,2-diamine bis-trifluoroacetate] showed an EC50 [1] of 420 nM.

Work on `C[C@]1(N[C@@H]2CCCC[C@H]2Nc2ncc(-c3cccc(C(N)=O)c3)o2)CCCN(c2ccc(C(F)(F)F)nc2)C1` [Example 322] yielded an EC50 [6] of 2 nM.

With `CN(C)Cc1cccc(-c2ccnc(N[C@@H]3CCCC[C@H]3N[C@H]3CCCN(c4ccc(C(F)(F)F)cc4)C3)c2)c1` [Example 131] the EC50 [3] was 1110 nM.

In the case of `N#Cc1ccc(N2CCC[C@H](N[C@@H]3CCCC[C@H]3Nc3nccc(-c4cccc(OC(F)(F)F)c4)n3)C2)cc1` [Example 61, 4-((S)-3-((1R,2R)-2-(4-(3-(Trifluoromethoxy)phenyl)pyrimidin-2-ylamino)cyclohexylamino)piperidin-1-yl)benzonitrile bis-trifluoroacetate], the EC50 [1] is reported as 861 nM.

`OCCc1cccc(-c2ccnc(N[C@@H]3CCCC[C@H]3N[C@H]3CCCN(c4ccc(C(F)(F)F)cc4)C3)c2)c1` [Example 149] was tested, and the EC50 [3] was 30 nM.

Compound `N#Cc1ccnc(N[C@@H]2CCCC[C@H]2N[C@H]2CCCN(c3ccc(C(F)(F)F)cc3)C2)n1` [Example 194] has an EC50 [3] of 606 nM.

Work on `N#Cc1ccc(N2CCC[C@H](N[C@@H]3CCCC[C@H]3Nc3cc(-c4cccc(N)n4)ccn3)C2)cc1` [Example 237] yielded an EC50 [5] of 9 nM.

`c1ccc(-c2cnc(N[C@@H]3CCCC[C@H]3N[C@H]3CCCN(c4ccc(-n5cccn5)cc4)C3)o2)cc1` [Example 62, (1R,2R)—N1-((S)-1-(4-(1H-Pyrazol-1-yl)phenyl)piperidin-3-yl)-N2-(5-phenyloxazol-2-yl)cyclohexane-1,2-diamine trifluoroacetate] was tested, and the EC50 [1] was 61 nM.

With `CC(C)(O)c1cccc(-c2ccnc(N[C@@H]3CCCC[C@H]3NC3CCCN(c4ccc(C#N)nc4)C3)c2)c1` (some centres unmarked) [Example 314] the EC50 [4] was 67 nM.

`NC(=O)c1cccc(-c2ccnc(N[C@@H]3CCCC[C@H]3N[C@H]3CCCN(c4ccc(-c5ncon5)cc4)C3)c2)c1` [Example 376] was tested, and the EC50 [2] was 15 nM.

With `CS(=O)(=O)c1cccc(-c2ccnc(N[C@@H]3CCCC[C@H]3N[C@H]3CCCN(c4ccc(C#N)cc4)C3)c2)c1` [Example 254] the EC50 [5] was 381 nM.

For `O=C(NC1CC1)c1cccc(-c2cnc(N[C@@H]3CCCC[C@H]3N[C@H]3CCCN(c4ccc(C(F)(F)F)cc4)C3)o2)c1` [Example 117], the EC50 [3] was 1 nM.

Compound `N#Cc1ccc(N2C[C@@H]3C[C@H](N[C@@H]4CCCC[C@H]4Nc4cc(-c5cccc(C(N)=O)c5)ccn4)[C@H]2C3)cn1` [Example 302] has an EC50 [4] of 1210 nM.

For `N#Cc1cc(N2C[C@@H]3C[C@H](N[C@@H]4CCCC[C@H]4Nc4ncc(-c5ccc(OC(F)(F)F)cc5)o4)[C@H]2C3)ncn1` [Example 444], the EC50 [2] was 378 nM.

`NC(=O)c1cccc(-c2ccnc(N[C@@H]3CCCC[C@H]3N[C@H]3C[C@@H]4C[C@H]3N(c3ccc(C(F)(F)F)cc3)C4)c2)c1` [Example 179] showed an EC50 [3] of 7 nM.

Work on `COc1ccc(-c2ccnc(N[C@@H]3CCCC[C@H]3N[C@H]3CCCN(c4ccc(C#N)cc4)C3)n2)cc1` [Example 58, 4-((S)-3-((1R,2R)-2-(4-(4-Methoxyphenyl)pyrimidin-2-ylamino)cyclohexylamino)piperidin-1-yl)benzonitrile trifluoroacetate] yielded an EC50 [1] of 1170 nM.

Work on `CCOC(=O)Nc1cccc(-c2cnc(N[C@@H]3CCCC[C@H]3N[C@H]3CCCN(c4ccc(C#N)cc4)C3)o2)c1` [Example 205] yielded an EC50 [5] of 0.2 nM.

Reference: patent US8815909B2, “Diaminocyclohexane compounds and uses thereof” (Bristol-Myers Squibb Company, priority 2011, dated 2014)
